The values that follow come from patent publication US20260035360A1, “INHIBITORS OF MYC AND USES THEREOF” (Northwestern University, priority 2022, published 2026).

Bounds are passed on as bounds.

In one data set the test system is PC3 cells. Nature of the data set: PC3 cell viability, CellTitreGlo Assay, 72 hrs. Type of data set: cell-based. The following applies: Homo sapiens, PC-3. The essentials: (§1)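 For viability IC50, PC3 and PC12 cells were exposed to a compound concentration range for 72 hrs and read by CellTitreGlo. MYC and ATF4 were measured in PC3 cells after 24 hr treatment by western blot, normalised to Actin and quantified by imager.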

A short description of data set [1]: Toxicity (weight loss) in tumor-bearing mice. Type of data set: in vivo. The note with it: weight loss class. The method, then:
(§2) Table 3. Biological data of selected compounds. […] Tumor growth inhibition (TGI) was determined after 14 d.

The next data set has as its system ATF4. Nature of the data set: ATF4 protein level in PC3 cells by western blot, 24 hr. The note with it: Homo sapiens, PC-3, PC3, 24 h, Actin control, read-out: Relative ATF4 protein at 10 μM (fold change, PC3 24 h). The format is cell-based. The essentials: as §1
Another data set concerns PC12 cells. Nature of the data set: PC12 cell viability, CellTitreGlo Assay, 72 hrs. The note with it: Rattus norvegicus, PC-12. The format is cell-based. The method, then: Table 2. Biological data of selected compounds. For IC50 determination. PC3 and PC12 cells were treated with increasing concentrations of the indicated compounds for 72 hrs and cell viability assessed using CellTitreGlo Assay (Promega). For MYC and ATF4 protein level determination. PC3 cells were treated with the indicated compounds for 24 hr sand cell lysates processed for western blot with MYC and ATF4 antibodies using Actin as a control. Quantification analyses were performed by Biorad ChemiDoc Imager and Bio-Rad Image Lab software.

A further data set has as its target T1, MYC (Homo sapiens, UniProt P01106).
T1 construct: endogenous in cells; host or cells: PC3 cells
Nature of the data set: MYC protein level in PC3 cells by western blot, 24 hr. The format is cell-based. The note with it: PC-3, 24 h, PC3, 24 h, Actin control, read-out: Relative MYC protein at 10 μM (%, PC3 24 h). The essentials:
as §1
A general note: A western blot detects proteins with antibodies after separation by electrophoresis.

In the next data set the test system is MycCaP;Pten-KO cells. Nature of the data set: Tumor growth inhibition, MycCaP;Pten-KO subcutaneous allograft in male FVB/N mice. The following applies: after 14 d; for TGI: QD, Table 7; for Efficacy MycCaP;Pten-ko (TGI @ 100 mg/kg/d po): male FVB/N mice, Table 3. Type of data set: in vivo. The method, then:
as §2
Table 7. Tumor Growth Inhibition data. […] Tumor growth inhibition (TOD was determined after 14 d.

Data set [2] can be described thus: Plasma pharmacokinetics after 1 mg/kg PO in female mice. The note with it: mouse.
Protocol: (§3) PK: Plasma levels of compounds were determined after 1 mg/kg dosing PO in female BALB/C mice.
(§4) Plasma levels of compounds were determined after 1 mg/kg dosing PO in female BALB/C mice.
The conditions of data set [3]: female, mouse, in vivo, po, 1 mg/kg.
Protocol: as §3, §4

T1 sequence (P01106 whole entry): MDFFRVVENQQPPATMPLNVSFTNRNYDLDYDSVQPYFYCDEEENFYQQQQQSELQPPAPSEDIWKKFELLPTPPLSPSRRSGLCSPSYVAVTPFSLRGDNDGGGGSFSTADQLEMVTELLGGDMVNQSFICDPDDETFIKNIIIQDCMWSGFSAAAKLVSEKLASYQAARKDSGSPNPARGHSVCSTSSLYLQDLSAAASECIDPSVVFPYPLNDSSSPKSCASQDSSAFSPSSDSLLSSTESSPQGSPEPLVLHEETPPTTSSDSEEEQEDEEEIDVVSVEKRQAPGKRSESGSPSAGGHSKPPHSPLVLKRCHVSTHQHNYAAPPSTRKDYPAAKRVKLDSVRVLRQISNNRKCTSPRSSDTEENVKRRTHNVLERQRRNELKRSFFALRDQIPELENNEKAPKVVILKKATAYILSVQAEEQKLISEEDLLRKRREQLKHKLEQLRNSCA

`Cn1nc(C(F)(F)F)cc1-c1cc(C(F)(F)F)c(COc2ccc(Cl)cc2)c(-c2ccc(Cl)c(C(F)(F)F)c2)c1O` [NUCC-0227244]: the values for the concentration for half-maximal inhibition (IC50) in the data set with PC3 cells and with PC12 cells were 570 nM and 4550 nM, respectively. Also, the “Toxicity @ 100 mg/kg/d” value in data set [1] is recorded as “++ (++, 15-20% weight loss)”. In addition, the fold induction at 10 µM in the data set with ATF4 worked out at 22.8. Moreover, at MYC, the remaining activity at 10 µM was 39.5%.

On to `Cn1nc(C(F)(F)F)c(Cl)c1-c1ccc(COc2ccc(Cl)cc2)c(-c2ccc(Cl)c(C(F)(F)F)c2)c1O` [NUCC-0226606], for which the half-maximal inhibitory concentration (IC50) – broadly, the concentration that gives 50% inhibition – with PC3 cells is 2230 nM; in the data set on PC12 cells, 16600 nM. The fold induction at 10 µM with ATF4 came out at 9.7 ± 1.2. Moreover, at MYC, the remaining activity at 10 µM is 38.2 ± 3.9%. Also, the results for the tumour growth inhibition (TGI) with MycCaP;Pten-KO cells (10 mg/kg p.o.), in the data set with MycCaP;Pten-KO cells (30 mg/kg p.o.) and in the data set on MycCaP;Pten-KO cells (100 mg/kg p.o.) were 43.1%, 56.4% and 74.6%, respectively. For the same molecule, the “Efficacy MycCaP;Pten-ko (TGI @ 100 mg/kg/d po)” value (shortened to “Efficacy MycCaP;Pten-ko”) in the data set with MycCaP;Pten-KO cells turned out to be 75. In data set [2], the area under the curve AUC(0-t) – broadly, the area under the concentration-time curve up to a stated or last time point – was 15200 ng·h/mL. Besides, in data set [2], the Cmax – broadly, the maximum level reached in the sampled fluid or tissue – turned out to be 841 ng/mL. The time to peak (Tmax) (as a rule, the time from dosing to the highest level) in data set [2] came out at 12 h. Further, in data set [3], the AUMC0-t worked out at 177148 h*h*ng/mL.

Turning to `Cn1nc(C(F)(F)F)cc1-c1ccc(OCc2ccc(Cl)cc2)c(-c2ccc(Cl)c(C(F)(F)F)c2)c1O` [MYCi975, reference compound], the values for the IC50 with PC3 cells and with PC12 cells were 2900 ± 500 nM and greater than 16000 nM, respectively. Moreover, in data set [1], the “Toxicity @ 100 mg/kg/d” value is “− (−, 0-5% weight loss)”. In addition, the “Efficacy MycCaP;Pten-ko” value in the data set with MycCaP;Pten-KO cells turned out to be 50.

`Cn1nc(C(F)(F)F)cc1-c1cc(Cl)c(Oc2ccc(Cl)cc2)c(-c2ccc(Cl)c(C(F)(F)F)c2)c1O` [NUCC-0227245]: the results for the IC50 with PC3 cells and with PC12 cells were 490 nM and 3810 nM, respectively. The “Toxicity @ 100 mg/kg/d” value in data set [1] is recorded as “+++ (+++, >20% weight loss or death)”. Further, in the data set with ATF4, the fold induction at 10 µM was 20.3 ± 3.7. In addition, at MYC, the remaining activity at 10 µM came out at 37.1 ± 1%.

Turning to `Cn1nc(C(F)(F)F)cc1-c1cc(Cl)c(COc2ccc(Cl)cc2)c(-c2ccc(Cl)c(C(F)(F)F)c2)c1O` [NUCC-0226605], the 50% inhibitory concentration (IC50) in the data set on PC3 cells amounted to 1000 nM; with PC12 cells, 10500 nM. Further, the “Toxicity @ 100 mg/kg/d” value in data set [1] is “++ (++, 15-20% weight loss)”. Further, in the data set on ATF4, the fold induction at 10 µM stood at 10.3 ± 1.5. In addition, the remaining activity at 10 µM at MYC is 34.7 ± 3.2%. For the same molecule, the TGI (usually the reduction of tumour growth relative to the control group) came to 56.29% in the data set on MycCaP;Pten-KO cells (10 mg/kg p.o.), 65.67% in the data set with MycCaP;Pten-KO cells (30 mg/kg p.o.) and 92.51% in the data set on MycCaP;Pten-KO cells (100 mg/kg p.o.). In the data set on MycCaP;Pten-KO cells, the “Efficacy MycCaP;Pten-ko” value turned out to be 90. Moreover, the area under the curve AUC(0-t) in data set [2] amounted to 4830 ng·h/mL. Besides, the highest level in data set [2] (Cmax) was 274 ng/mL. The Tmax in data set [2] was 8 h. In data set [3], the AUMC0-t stood at 49995 h*h*ng/mL.
